Data reported in article PMC9522516, “A Simple and Portable Personal Glucose Meter Method Combined with Molecular Docking for Screening of Lipase Inhibitors” (Evidence-based Complementary and Alternative Medicine : eCAM, 2022).

Target: T1, Lipase (Diutina rugosa, UniProt P20261)
T1 construct: gene LIP1
Assay: lipase activity assay, personal glucose meter readout, % inhibition at […]
Format: biochemical

T1 sequence (P20261 16-549): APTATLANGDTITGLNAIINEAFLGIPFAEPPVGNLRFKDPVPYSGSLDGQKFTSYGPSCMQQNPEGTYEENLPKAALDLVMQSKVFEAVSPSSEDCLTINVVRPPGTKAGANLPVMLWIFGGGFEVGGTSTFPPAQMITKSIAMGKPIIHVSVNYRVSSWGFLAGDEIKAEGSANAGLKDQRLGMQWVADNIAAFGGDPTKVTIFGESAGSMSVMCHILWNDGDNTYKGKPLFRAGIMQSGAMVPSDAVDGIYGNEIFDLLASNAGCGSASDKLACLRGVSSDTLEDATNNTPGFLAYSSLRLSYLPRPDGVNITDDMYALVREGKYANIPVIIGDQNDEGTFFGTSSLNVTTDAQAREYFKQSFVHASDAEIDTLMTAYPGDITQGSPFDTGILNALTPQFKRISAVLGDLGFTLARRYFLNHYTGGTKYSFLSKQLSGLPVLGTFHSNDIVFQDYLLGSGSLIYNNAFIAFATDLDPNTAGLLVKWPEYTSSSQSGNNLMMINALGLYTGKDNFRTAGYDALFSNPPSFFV

Row | Structure (SMILES) | inhibition at 2000 µM [%]
1 | Oc1cc(O)c2c(c1)O[C@H](c1ccc(O)c(O)c1)[C@H](O)C2 [Epicatechin] | 42.8 ± 1.8
2 | O=C(/C=C/c1ccc(O)c(O)c1)O[C@H](Cc1ccc(O)c(O)c1)C(=O)O [Rosmarinic acid] | 39.3 ± 3
3 | Oc1cc(O)c2c(c1)O[C@H](c1cc(O)c(O)c(O)c1)[C@H](O)C2 [(−)-Epigallocatechin] | 47.2 ± 1.6
4 | O=C(O[C@@H]1Cc2c(O)cc(O)cc2O[C@@H]1c1ccc(O)c(O)c1)c1cc(O)c(O)c(O)c1 [(−)-Epicatechin gallate] | 46.5 ± 2.2
